Test results published in paper PMC10571957, “αV-Integrin-Dependent Inhibition of Glioblastoma Cell Migration, Invasion and Vasculogenic Mimicry by the uPAcyclin Decapeptide” (Cancers, 2023).
Several values for one entry are separate records, joined by “and”; a condition that tells them apart may be missing. Equal values may be shown once.

Columns and labels:
Format in all cases: cell-based, human
U251-MG cells = experiment: Cell viability/proliferation (Trypan blue), U251-MG; settings: 1 nM or 100 nM, 72–96 h
Procedure: (§1) Cell viability was tested in DMEM/10% FBS, in the presence of 1 nM or 100 nM uPAcyclin, either by Trypan blue exclusion or by thiazolyl blue tetrazolium bromide (MTT) assays, as specified in the figure legends. For the Trypan blue assay, 4 × 10^4 U87-MG, U251-MG, U138-MG, and C6 cells/sample were grown in 12-well plates, and followed for 24, 48 and 72 h. As a negative control, the cells were grown in a serum-free medium. Then, the cells were detached, stained with a 0.2% (w/v) Trypan blue solution, counted using a Burker chamber (T0 = 100%), and reported as number of viable cells/total.

U87-MG cells [1] = experiment: Boyden chamber Matrigel invasion, U87-MG; settings: for invasion, % basal, average expt 1: mean of expt 1
Procedure: The migration and invasion assays were performed using Boyden chambers and 8 µm pore size PVP-free filters coated with 50 µg/mL of collagen type VI (Sigma), as previously described. For the invasion assays, collagen-coated filters were further coated with 50 µg/mL Matrigel^TM (Sigma). Briefly, 11 × 10^4 U87-MG, 4 × 10^4 U251-MG, or 4 × 10^4 U138-MG/sample were pre-treated for 40 min at 37 °C with the indicated effectors. Then, the cells were allowed to migrate for 3 h or to invade for 5 h at 37 °C toward 5% FBS in DMEM/0.1% BSA. At the end of both assays, the cells on the lower filter surface were fixed, stained with haematoxylin, and counted under an optical microscope (Zeiss Axiophot, Carl Zeiss, Milan, Italy) at 20× magnification. […] The migrated or invaded cells were reported as percentage of basal migration or invasion in the presence of DMEM/0.1% BSA, taken as 100%, and analyzed as reported in Section 2.11.
Figure 4 Effect of uPAcyclin on matrix invasion of U87-MG, U251-MG, and U138-MG GBM cells. Quantitative analysis of U87-MG (A), U251-MG (B), and U138-MG (C) invasion. […] Data are expressed as in the legend to Figure 3. Results are expressed as percentages with respect to the basal invasion, considered as 100% (* p-value < 0.05; ** p-value < 0.005; *** p-value < 0.001).

U87-MG cells [2] = experiment: Cell viability/proliferation (Trypan blue, MTT), U87-MG; settings: 1 nM or 100 nM, 72–96 h
Procedure: as §1
For the MTT assay, 5 × 10^3 U87-MG and C6 cells/well were grown in 96-well plates for 24 h and tested as previously described. Briefly, MTT (Invitrogen-Life Technologies, Eugene, OR, USA) 5 mg/mL in a PBS solution was added to wells at a 10% final concentration, and incubated for 3 h at 37 °C, followed by the addition of stop solution (100 µL of DMSO/well) for 1 h at room temperature. Then, the optical densities were measured at 495 nm using the Microplate Reader (Synergy HT, Bio-Tek, Winoosky, VT, USA). The cell viability rate was calculated as a percentage by reporting the mean absorbance of treated groups to control groups, as follows: Cell viability rate (%) = (Atreated group/Acontrol group) × 100.

U138-MG cells = experiment: Boyden chamber migration (chemotaxis), U138-MG; settings: for migration, % of basal, average 2 expts: mean of 2 expts; for migration, % of basal, average expt 1: mean of expt 1; for migration, % of basal, average expt 2: mean of expt 2; for migration, % of basal, T-test list: single replicates of both expts
Procedure: The migration and invasion assays were performed using Boyden chambers and 8 µm pore size PVP-free filters coated with 50 µg/mL of collagen type VI (Sigma), as previously described. For the invasion assays, collagen-coated filters were further coated with 50 µg/mL Matrigel^TM (Sigma). Briefly, 11 × 10^4 U87-MG, 4 × 10^4 U251-MG, or 4 × 10^4 U138-MG/sample were pre-treated for 40 min at 37 °C with the indicated effectors. Then, the cells were allowed to migrate for 3 h or to invade for 5 h at 37 °C toward 5% FBS in DMEM/0.1% BSA. At the end of both assays, the cells on the lower filter surface were fixed, stained with haematoxylin, and counted under an optical microscope (Zeiss Axiophot, Carl Zeiss, Milan, Italy) at 20× magnification. The migration and invasion experiments were conducted in triplicate for U87-MG and in duplicate for U251-MG and U138-MG. The migrated or invaded cells were reported as percentage of basal migration or invasion in the presence of DMEM/0.1% BSA, taken as 100%, and analyzed as reported in Section 2.11.
Figure 3 Inhibition of U87-MG, U251-MG, and U138-MG GBM cellular migration by uPAcyclin. Quantitative analysis of U87-MG (A), U251-MG (B), and U138-MG (C) directional migration. A total of 11 × 10^4 U87-MG/sample or 4 × 10^4 U251-MG or U138-MG/sample were pre-treated for 40 min at 37 °C with uPAcyclin or S-peptide at the indicated concentrations, anti-αV polyclonal (anti-αV Pclonal) or monoclonal (anti-αV MoAb) antibody, or anti-GAPDH, and anti-α2 monoclonal antibody (anti-α2 MoAb), and then assayed in Boyden chambers at 37 °C, either for basal (BSA) or directional 5% FBS-dependent migration for 3 h at 37 °C. At the end of incubation, the filters were processed as described in Methods. Basal migration was taken as 100% and all values were calculated relative to that (* p-value < 0.05; ** p-value < 0.005; *** p-value < 0.001).

[3] = 100 nM, 5% FBS, 5 h, expt 1, duplicates
[4] = 100 nM, 5% FBS, 5 h, expt 2, duplicates
[5] = 100 nM, 5% FBS, 5 h, expt 3, duplicates
[6] = 1 µM, 5% FBS, 5 h, expt 1, duplicates
[7] = 1 nM, 5% FBS, 3 h, expt 1, duplicates
[8] = 1 nM, 5% FBS, 3 h, expt 2, duplicates
[9] = 100 nM, 5% FBS, 3 h, expt 1, duplicates
[10] = 100 nM, 5% FBS, 3 h, expt 2, duplicates

Ac-K^1P[ESPPEELK^10]-NH2 (sidechain bridge or staple) [uPAcyclin]
proliferation/viability (U251-MG cells): unaffected by uPAcyclin, regardless of the concentration employed
reduction in invasion (U87-MG cells [1]; 100 nM, U87-MG, 5% FBS, 5 h): 50–60%
invaded cell number/field (U87-MG cells [1]; [3]): 29 cell number/field and 28 cell number/field
invasion, % of basal (U87-MG cells [1]; [3]): 111% and 108%
invaded cell number/field (U87-MG cells [1]; [4]): 28 cell number/field and 29 cell number/field
invasion, % of basal (U87-MG cells [1]; [4]): 117% and 121%
invaded cell number/field (U87-MG cells [1]; [5]): 34 cell number/field and 33 cell number/field
invasion, % of basal (U87-MG cells [1]; [5]): 131% and 127%
Invasion, %, average 3 expts (U87-MG cells [1]; 100 nM, mean of 3 expts): 119%
invasion, % basal, average expt 1 (U87-MG cells [1]; 100 nM): 110%
invasion, % basal, average expt 2 (U87-MG cells [1]; 100 nM, mean of expt 2): 119%
invasion, % basal, average expt 3 (U87-MG cells [1]; 100 nM, mean of expt 3): 129%
invasion, % of basal, T-test list (U87-MG cells [1]; 100 nM, single replicates of 3 expts): 111 and 108 and 117 and 121 and 131 and 127
invasion, in words (U87-MG cells [1]; 1 µM, U87-MG, 5% FBS, 5 h): reduced invasion to basal levels
invaded cell number/field (U87-MG cells [1]; [6]): 24 cell number/field and 26 cell number/field
invasion, % of basal (U87-MG cells [1]; [6]): 92% and 100%
Invasion, %, average 3 expts (U87-MG cells [1]; 1 µM, headed average 3 expts (only expt 1 has data)): 96%
invasion, % basal, average expt 1 (U87-MG cells [1]; 1 µM): 96%
invasion, % of basal, T-test list (U87-MG cells [1]; printed 10 µM, single replicates): 92 and 100
proliferation/viability (U87-MG cells [2]): unaffected by uPAcyclin, regardless of the concentration employed
inhibition of migration (U138-MG cells; 1 nM, U138-MG, 5% FBS, 3 h): 70–80%
migrated cells n°/field (U138-MG cells; [7]): 8 cells n°/field and 7 cells n°/field
migration, % of basal (U138-MG cells; [7]): 114% and 100%
migrated cells n°/field (U138-MG cells; [8]): 8 cells n°/field and 10 cells n°/field
migration, % of basal (U138-MG cells; [8]): 100% and 125%
migration, % of basal, average 2 expts (U138-MG cells; 1 nM, 5% FBS, 3 h): 110%
migration, % of basal, average expt 1 (U138-MG cells; 1 nM, 5% FBS, 3 h): 107%
migration, % of basal, average expt 2 (U138-MG cells; 1 nM, 5% FBS, 3 h): 113%
migration, % of basal, T-test list (U138-MG cells; 1 nM): 114 and 100 and 125
migration, in words (U138-MG cells; 100 nM, U138-MG, 5% FBS, 3 h): below background levels
migrated cells n°/field (U138-MG cells; [9]): 7 cells n°/field and 5 cells n°/field
migration, % of basal (U138-MG cells; [9]): 100% and 71%
migrated cells n°/field (U138-MG cells; [10]): 6 cells n°/field and 7 cells n°/field
migration, % of basal (U138-MG cells; [10]): 75% and 88%
migration, % of basal, average 2 expts (U138-MG cells; 100 nM, 5% FBS, 3 h): 84%
migration, % of basal, average expt 1 (U138-MG cells; 100 nM, 5% FBS, 3 h): 86%
migration, % of basal, average expt 2 (U138-MG cells; 100 nM, 5% FBS, 3 h): 82%
migration, % of basal, T-test list (U138-MG cells; 100 nM): 100 and 71 and 75 and 88
